Laboratory results: article PMC7948495, “The flexible N-terminus of BchL autoinhibits activity through interaction with its [4Fe-4S] cluster and released upon ATP binding” (The Journal of Biological Chemistry, 2020)

Columns and labels:
BchL [1] = molecular target: T1, BchL (Cereibacter sphaeroides, UniProt Q9RFD6); experiment: EPR of the [4Fe-4S] cluster; format: binding; conditions: 40 µM BchL, 3 mM ADP, 1.7 mM dithionite
T1 construct: full-length with N-terminal 6xHis tag and TEV site; recombinant, plasmid-expressed; anaerobically purified; homodimer bridged by one [4Fe-4S] cluster

linked-BchL (L1-L2) [2] = molecular target: T2, linked-BchL (L1-L2) (Cereibacter sphaeroides, UniProt Q9RFD6, K44A); experiment: nitrocellulose filter binding; conditions: labelled compound (32P-ATP tracer); 1 mM ATP, 10 mM MgCl2, pH 7.5, 25 °C; one of two sites mutated
T2 construct: N-terminal 6xHis tag and TEV site

BchL [3] = molecular target: T3, BchL (Cereibacter sphaeroides, UniProt Q9RFD6, S17A); experiment: hydrogen-deuterium exchange mass spectrometry; format: binding; conditions: 2 mM ATP, 10 mM MgCl2, pD 7.5, anaerobic
T3 construct: full-length with N-terminal 6xHis tag and TEV site; recombinant, plasmid-expressed; anaerobically purified; homodimer bridged by one [4Fe-4S] cluster

linked-BchL (L1-L2) [4] = molecular target: T4, linked-BchL (L1-L2) (Cereibacter sphaeroides, UniProt Q9RFD6); experiment: nitrocellulose filter binding; conditions: labelled compound (α32P-ATP tracer); 4 µM BchL, 1 mM ATP, 10 mM MgCl2, pH 7.5, 25 °C; stoichiometry, no affinity constant
T4 construct: N-terminal 6xHis tag and TEV site
Text: nitrocellulose filter binding on linked-BchL (L1-L2) | linked-BchL with unaltered ATP-binding sites ([…]) bind ATP to similar extents

BchL [5] = molecular target: T5, BchL (Cereibacter sphaeroides, UniProt Q9RFD6, D180N/D182N); experiment: nitrocellulose filter binding; conditions: labelled compound (α32P-ATP tracer); 4 µM BchL, 1 mM ATP, 10 mM MgCl2, pH 7.5, 25 °C; stoichiometry, no affinity constant
T5 construct: full-length with N-terminal 6xHis tag and TEV site; recombinant, plasmid-expressed; anaerobically purified; homodimer bridged by one [4Fe-4S] cluster

BchL [6] = molecular target: T1, BchL; experiment: nitrocellulose filter binding; conditions: labelled compound (α32P-ATP tracer); 4 µM BchL, 1 mM ATP, 10 mM MgCl2, pH 7.5, 25 °C; stoichiometry, no affinity constant

T1 sequence (Q9RFD6 whole entry): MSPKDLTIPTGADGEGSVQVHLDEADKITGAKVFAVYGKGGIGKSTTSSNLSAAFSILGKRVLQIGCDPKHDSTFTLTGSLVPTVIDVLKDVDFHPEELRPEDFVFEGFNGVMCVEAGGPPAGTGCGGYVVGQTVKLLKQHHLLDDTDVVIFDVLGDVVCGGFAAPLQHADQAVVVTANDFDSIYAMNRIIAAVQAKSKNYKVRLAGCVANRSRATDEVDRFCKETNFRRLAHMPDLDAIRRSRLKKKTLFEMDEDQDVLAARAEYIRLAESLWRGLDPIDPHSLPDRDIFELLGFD
T5 sequence (Q9RFD6 whole entry D180N/D182N): as the sequence (Q9RFD6 whole entry) above, with D180N, D182N counted along it
T4 sequence (Q9RFD6 whole entry): as the sequence (Q9RFD6 whole entry) above
T3 sequence (Q9RFD6 whole entry S17A): as the sequence (Q9RFD6 whole entry) above, with S17A counted along it
T2 sequence (Q9RFD6 whole entry K44A): as the sequence (Q9RFD6 whole entry) above, with K44A counted along it

ATP bound per BchL dimer (BchL [5]) | ATP bound per BchL dimer (BchL [6]) | Compound | EPR of the [4Fe-4S] cluster (BchL [1]) | nitrocellulose filter binding (linked-BchL (L1-L2) [2]) | hydrogen-deuterium exchange mass spectrometry (BchL [3]) | nitrocellulose filter binding (linked-BchL (L1-L2) [4])
 |  | Nc1ncnc2c1ncn2[C@@H]1O[C@H](COP(=O)(O)OP(=O)(O)O)[C@@H](O)[C@H]1O [ADP] | with ADP, the proportion of the FeS^A species was diminished by a factor of two |  |  | 
~ 2 ATP per dimer | ~ 2 ATP per dimer | Nc1ncnc2c1ncn2[C@@H]1O[C@H](COP(=O)(O)OP(=O)(O)OP(=O)(O)O)[C@@H](O)[C@H]1O [ATP] |  | When only one of the two ATP binding sites is mutated (L1^KA-L2), partial ATP binding is observed | Both BchL and BchL^S17A show similar patterns of reduced deuteration upon binding to ATP | linked-BchL with unaltered ATP-binding sites (L1L2) bind ATP to similar extents
